Patent US20100173935A1, “Muscarinic Receptor Agonists that are Effective in the Treatment of Pain, Alzheimer's Disease and Schizophrenia” (AstraZeneca AB, priority 2006, published 2010)

What follows are molecules tested against T1, human M2 receptor (Homo sapiens, UniProt P08172) (assay: hM2 receptor GTPγS binding). Settings: not given.
T1 construct: purchased Perkin-Elmer RBHM2M; host or cells: CHO cell membranes
T1 sequence (P08172 1-466): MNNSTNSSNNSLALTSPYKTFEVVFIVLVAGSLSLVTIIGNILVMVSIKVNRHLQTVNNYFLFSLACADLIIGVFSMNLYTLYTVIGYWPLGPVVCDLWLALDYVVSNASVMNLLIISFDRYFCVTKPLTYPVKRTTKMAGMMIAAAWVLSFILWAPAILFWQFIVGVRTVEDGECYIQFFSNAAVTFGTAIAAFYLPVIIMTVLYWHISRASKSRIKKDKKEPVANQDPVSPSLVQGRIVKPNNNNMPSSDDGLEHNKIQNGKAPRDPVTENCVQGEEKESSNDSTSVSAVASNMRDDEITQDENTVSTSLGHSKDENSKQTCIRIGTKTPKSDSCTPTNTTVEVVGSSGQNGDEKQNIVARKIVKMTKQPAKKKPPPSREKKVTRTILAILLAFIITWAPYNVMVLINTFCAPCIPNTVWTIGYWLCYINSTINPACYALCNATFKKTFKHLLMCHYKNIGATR
Assay type: biochemical
Procedure: Membranes produced from Chinese hamster ovary cells (CHO) expressing the cloned human M2 receptor (human Muscarinic receptor subtype 2, gene bank access NM_000739), were obtained from Perkin-Elmer (RBHM2M). The membranes were thawed at 37° C., passed 3 times through a 23-gauge blunt-end needle, diluted in the GTPγS binding buffer (50 mM Hepes, 20 mM NaOH, 100 mM NaCl, 1 mM EDTA, 5 mM MgCl2, pH 7.4, […] DTT). The EC50, IC50 and Emax of the compounds of the invention were evaluated from 10-point dose-response curves (three fold concentration range) done in 60 μl in 384-well non-specific binding surface plate (Corning). Ten microliters from the dose-response curves plate (5× concentration) were transferred to another 384 well plate containing the following: 10 μg of hM2 membranes, 500 μg of Flashblue beads (Perkin-Elmer) and GDP in a 25 μl volume. An additional 15 μl containing 3.3× (55000 dpm) of GTRγ35S (0.4 nM final) were added to the wells resulting in a total well volume of 50 μl. Basal and maximal stimulated [^35S]GTPγS binding were determined in absence and presence of 30 μM of acetylcholine agonist. The membranes/beads mix were pre-incubated for 15 minutes at room temperature with 25 μM GDP prior to distribution in plates (12.5 μM final). The reversal of acetylcholine-induced stimulation (2 μM final) of [^35S]GTPγS binding was used to assay the antagonist properties (IC50) of the compounds. The plates were incubated for 60 minutes at room temperature with shaking, then centrifuged at 2000 rpm for 5 minutes. The radioactivity (cpm) were counted in a Trilux (Perkin-Elmer).
Values of EC50, IC50 and Emax were obtained using sigmoidal fits of a non-linear curve-fitting program (XLfit version 5.0.6 from ID Business Solutions Limited, Guildford, UK) of percent stimulated [^35S]GTPγS binding vs. log(molar ligand).
All EC50 and IC50 values are reported as arithmetic means t standard error of mean of ‘n’ independent experiments. […] The IC50 was the concentration of the compound of the invention at which 50% inhibition of acetylcholine [^35S]GTPγS binding stimulation has been observed.

First: CCOC(=O)N1CC[C@@H](N2CCC(n3c(=O)[nH]c4ccc(F)cc43)CC2)C1 (single isomer, unassigned) [Example 36]
Second: CCOC(=O)N1CC[C@H](N2CCC(n3c(=O)[nH]c4ccc(F)cc43)CC2)C1 (single isomer, unassigned) [Example 35]
The EC50 of the first is lower: 4.65 µM for the first, > 30 µM for the second. The first is the more potent here.

First: CCOC(=O)N1CC[C@H](N2CCC(N3C(=O)Cc4ccccc43)CC2)C1 [Example 26, Ethyl (3S)-3-[4-(2-oxo-2,3-dihydro-1H-indol-1-yl)piperidin-1-yl]pyrrolidine-1-carboxylate]
Second: O=C1CCCN1CCC(=O)N1CC[C@H](N2CCC(N3C(=O)Cc4ccccc43)CC2)C1 [Example 29, 1-(1-{(3S)-1-[3-(2-oxopyrrolidin-1-yl)propanoyl]pyrrolidin-3-yl}piperidin-4-yl)-1,3-dihydro-2H-indol-2-one]
The EC50 of the first is 4.3-fold higher: 7.45 µM for the first, 1.75 µM for the second.

Compared with `O=C1CCCN1CCCC(=O)N1CC[C@H](N2CCC(n3c(=O)[nH]c4ccccc43)CC2)C1` [Example 22, 1-(1-{(3S)-1-[4-(2-oxopyrrolidin-1-yl)butanoyl]pyrrolidin-3-yl}piperidin-4-yl)-1,3-dihydro-2H-benzimidazol-2-one], `O=C(C1CCCC1)N1CC[C@H](N2CCC(n3c(=O)[nH]c4ccccc43)CC2)C1` [Example 19, 1-{1-[(3S)-1-(cyclopentylcarbonyl)pyrrolidin-3-yl]piperidin-4-yl}-1,3-dihydro-2H-benzimidazol-2-one] is lower in EC50: > 30 µM for the first, 0.245 µM for the second. The second is the more potent here.

First: CCOC(=O)N1CC[C@H](N2CCC(n3c(=O)[nH]c4ccc(C#N)cc43)CC2)C1 [Example 41, Ethyl (3S)-3-[4-(6-cyano-2-oxo-2,3-dihydro-1H-benzimidazol-1-yl)piperidin-1-yl]pyrrolidine-1-carboxylate]
Second: CCOC(=O)N1CC[C@H](N2CCC(n3c(=O)[nH]c4ccc(Cl)cc43)CC2)C1 [Example 42, Ethyl (3S)-3-[4-(6-chloro-2-oxo-2,3-dihydro-1H-benzimidazol-1-yl)piperidin-1-yl]pyrrolidine-1-carboxylate]
The EC50 of the first is higher: > 3.33 µM for the first, 1.2 µM for the second. The second is the more potent here.

Same assay, conditions: CHO membranes expressing cloned human M2, [35S]GTPγS binding; read-out: hM2 EC50

Going from `Cn1c(=O)n(C2CCN([C@H]3CCN(C(=O)CCN4CCCC4=O)C3)CC2)c2ccccc21` [Example 24, 1-methyl-3-(1-{(3S)-1-[3-(2-oxopyrrolidin-1-yl)propanoyl]pyrrolidin-3-yl}piperidin-4-yl)-1,3-dihydro-2H-benzimidazol-2-one] to `CCOC(=O)N1CC[C@@H](N2CCC(n3c(=O)[nH]c4ccccc43)CC2)C1` [Example 16, Ethyl (3R)-3-[4-(2-oxo-2,3-dihydro-1H-benzimidazol-1-yl)piperidin-1-yl]pyrrolidine-1-carboxylate], the EC50 falls from > 30 µM to 3.29 µM.

`CCOC(=O)N1CCC(N2CCC(C3C(=O)Nc4ccccc43)CC2)C1` (centres unmarked) [Example 13, Ethyl 3-[4-(2-oxo-2,3-dihydro-1H-indol-3-yl)piperidin-1-yl]pyrrolidine-1-carboxylate] gave an EC50 of 3.54 µM.
